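Protocol summary: plate cells (96-well), add compound at 5 concentrations, incubate 48 h, interpolate endpoints linearly. At the GI50, growth is halved. TGI: concentration producing complete growth inhibition.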
Assays:
Experiment in all cases: NCI tumour cell line growth inhibition, 48 h
[1] = test system: UACC-257 melanoma
[2] = test system: MDA-MB-231 breast
[3] = test system: 786-0 renal
[4] = test system: SK-MEL-5 melanoma
[5] = test system: OVCAR-5 ovarian
[6] = test system: ACHN renal
[7] = test system: SK-MEL-2 melanoma
[8] = test system: CAKI-1 renal
[9] = test system: PC-3 prostate
[10] = test system: HCT-15 colon
[11] = test system: HCC-2998 colon
[12] = test system: SNB-19 CNS
[13] = test system: MDA-MB-435
[14] = test system: U251 CNS
[15] = test system: BT-549 breast
[16] = test system: DU-145 prostate
[17] = test system: NCI-H23 lung
[18] = test system: SK-MEL-28 melanoma
[19] = test system: RPMI-8226 leukemia
[20] = test system: NCI-H226 lung
[21] = test system: NCI-H522 lung
[22] = test system: T-47D breast
[23] = test system: COLO 205 colon
[24] = test system: OVCAR-8 ovarian
[25] = test system: SF-295 CNS
[26] = test system: MDA-MB-468 breast
[27] = test system: NCI-H460 lung
[28] = test system: A498 renal
[29] = test system: MALME-3M melanoma
[30] = test system: IGROV1 ovarian
[31] = test system: RXF 393 renal
[32] = test system: SNB-75 CNS
[33] = test system: OVCAR-4 ovarian
[34] = test system: LOX IMVI melanoma
[35] = test system: EKVX NSCLC
[36] = test system: K-562 leukemia
[37] = test system: HS 578T breast
[38] = test system: MOLT-4 leukemia
[39] = test system: HOP-62 NSCLC
[40] = test system: CCRF-CEM leukemia
[41] = test system: SR leukemia
[42] = test system: SF-539 CNS
[43] = test system: HL-60(TB) leukemia
[44] = test system: SF-268 CNS
[45] = test system: HCT-116 colon
[46] = test system: UO-31 renal
[47] = test system: KM12 colon
[48] = test system: NCI/ADR-RES ovarian
[49] = test system: SW-620 colon
[50] = test system: MCF7 breast
[51] = test system: SK-OV-3 ovarian
[52] = test system: UACC-62 melanoma
[53] = test system: A549 NSCLC
[54] = test system: HOP-92 NSCLC
[55] = test system: SN12C renal
[56] = test system: HT29 colon
[57] = test system: M14 melanoma
[58] = test system: TK-10 renal
[59] = test system: OVCAR-3 ovarian

`Cc1ccc(C2CC(c3ccc(NC(=S)Nc4ccccc4)cc3)=NN2c2ccc(S(N)(=O)=O)cc2)cc1` (stereo not drawn) was tested, and the GI50 [1] was 6.4 µM, the TGI [1] was 30.9 µM and the GI50 [2] was 9.63 µM. For the same molecule, the TGI [2] was 29.6 µM, the GI50 [3] was 3.89 µM and the TGI [3] was 22.5 µM. It also gave a GI50 [4] of 4.83 µM, a TGI [4] of 17.8 µM and a GI50 [5] of 4.54 µM. For the same molecule, the TGI [5] was 17.9 µM, the GI50 [6] was 3.25 µM and the TGI [6] was 11.6 µM. It also gave a GI50 [7] of 6.22 µM, a TGI [7] of 21.1 µM and a GI50 [8] of 3.12 µM. It also gave a TGI [8] of 12.7 µM, a GI50 [9] of 2750 nM and a TGI [9] of 14 µM. For the same molecule, the GI50 [10] was 3.05 µM, the TGI [10] was 18.8 µM and the GI50 [11] was 3.58 µM. It also gave a TGI [11] of 18.3 µM, a GI50 [12] of 4.97 µM and a TGI [12] of 23.2 µM. It also gave a GI50 [13] of 3.06 µM, a TGI [13] of 25 µM and a GI50 [14] of 5.29 µM. For the same molecule, the TGI [14] was 24.2 µM, the GI50 [15] was 6.06 µM and the TGI [15] was 19.3 µM. For the same molecule, the GI50 [16] was 8.22 µM, the TGI [16] was 97.1 µM and the GI50 [17] was 5.79 µM. For the same molecule, the TGI [17] was 34 µM, the GI50 [18] was 4.69 µM and the TGI [18] was 16.4 µM. For the same molecule, the GI50 [19] was 3.45 µM, the TGI [19] was over 100 µM and the GI50 [20] was 3.31 µM. It also gave a TGI [20] of 19.1 µM, a GI50 [21] of 2840 nM and a TGI [21] of 14.8 µM. For the same molecule, the GI50 [22] was 3.16 µM, the TGI [22] was 17.5 µM and the GI50 [23] was 3.56 µM. The TGI [23] was 12.3 µM, the GI50 [24] was 5.96 µM and the TGI [24] was 67.8 µM. For the same molecule, the GI50 [25] was 3.28 µM, the TGI [25] was 15.7 µM and the GI50 [26] was 1810 nM. It also gave a TGI [26] of 5.56 µM, a GI50 [27] of 3.1 µM and a TGI [27] of 11.5 µM. For the same molecule, the GI50 [28] was 6.73 µM, the TGI [28] was 25.8 µM and the GI50 [29] was 6.88 µM. It also gave a TGI [29] of 23.6 µM, a GI50 [30] of 3.44 µM and a TGI [30] of 14.7 µM. It also gave a GI50 [31] of 2990 nM, a TGI [31] of 12.7 µM and a GI50 [32] of 2010 nM. For the same molecule, the TGI [32] was 14.6 µM, the GI50 [33] was 4.06 µM and the TGI [33] was 33.5 µM. The GI50 [34] was 4.76 µM, the TGI [34] was 20 µM and the GI50 [35] was 3.75 µM. The TGI [35] was 37.3 µM, the GI50 [36] was 3.2 µM and the TGI [36] was 47.6 µM. The GI50 [37] was 8.04 µM, the TGI [37] was 48.4 µM and the GI50 [38] was 2620 nM. It also gave a TGI [38] of 13.2 µM, a GI50 [39] of 8.74 µM and a TGI [39] of 34.2 µM. The GI50 [40] was 3.18 µM, the TGI [40] was 53.1 µM and the GI50 [41] was 3.3 µM. For the same molecule, the TGI [41] was 27.2 µM, the GI50 [42] was 5.4 µM and the TGI [42] was 19.8 µM. For the same molecule, the GI50 [43] was 2330 nM, the TGI [43] was 6.51 µM and the GI50 [44] was 4.11 µM. It also gave a TGI [44] of over 100 µM, a GI50 [45] of 3.28 µM and a TGI [45] of 16.9 µM. The GI50 [46] was 2670 nM, the TGI [46] was 13.3 µM and the GI50 [47] was 4.67 µM. The TGI [47] was 23.7 µM, the GI50 [48] was 4.04 µM and the TGI [48] was 49.5 µM. For the same molecule, the GI50 [49] was 3.52 µM, the TGI [49] was 26.6 µM and the GI50 [50] was 2780 nM. For the same molecule, the TGI [50] was 14.2 µM, the GI50 [51] was 11 µM and the TGI [51] was 32.9 µM. It also gave a GI50 [52] of 3.45 µM, a TGI [52] of 16 µM and a GI50 [53] of 4.09 µM. For the same molecule, the TGI [53] was over 100 µM, the GI50 [54] was 3.81 µM and the TGI [54] was 22 µM. It also gave a GI50 [55] of 4.23 µM, a TGI [55] of 29.5 µM and a GI50 [56] of 2550 nM. For the same molecule, the TGI [56] was 8.75 µM, the GI50 [57] was 4.2 µM and the TGI [57] was 17.8 µM. It also gave a GI50 [58] of 3.09 µM, a TGI [58] of 17.6 µM and a GI50 [59] of 3.28 µM. The TGI [59] was 22.7 µM.
